Legend:
[1] = target: T1, Recombinant human prolyl oligopeptidase (Homo sapiens, UniProt P48147); experiment: Determination of IC50- and Ki-values of PEP-inhibitors, chromogenic substrate Cbz-Gly-L-Pro-pNA; assay type: biochemical; details: for Ki: 4 substrate and 7 inhibitor concentrations, competitive inhibition, pH 7.6, 30° C.; for IC50 / IC50 PEP (M): substrate 0.15 mM, HEPES buffer pH 7.6, 30° C., n.i. means no inhibition
T1 construct: made in house; host or cells: E. coli
T1 sequence (P48147 1-710): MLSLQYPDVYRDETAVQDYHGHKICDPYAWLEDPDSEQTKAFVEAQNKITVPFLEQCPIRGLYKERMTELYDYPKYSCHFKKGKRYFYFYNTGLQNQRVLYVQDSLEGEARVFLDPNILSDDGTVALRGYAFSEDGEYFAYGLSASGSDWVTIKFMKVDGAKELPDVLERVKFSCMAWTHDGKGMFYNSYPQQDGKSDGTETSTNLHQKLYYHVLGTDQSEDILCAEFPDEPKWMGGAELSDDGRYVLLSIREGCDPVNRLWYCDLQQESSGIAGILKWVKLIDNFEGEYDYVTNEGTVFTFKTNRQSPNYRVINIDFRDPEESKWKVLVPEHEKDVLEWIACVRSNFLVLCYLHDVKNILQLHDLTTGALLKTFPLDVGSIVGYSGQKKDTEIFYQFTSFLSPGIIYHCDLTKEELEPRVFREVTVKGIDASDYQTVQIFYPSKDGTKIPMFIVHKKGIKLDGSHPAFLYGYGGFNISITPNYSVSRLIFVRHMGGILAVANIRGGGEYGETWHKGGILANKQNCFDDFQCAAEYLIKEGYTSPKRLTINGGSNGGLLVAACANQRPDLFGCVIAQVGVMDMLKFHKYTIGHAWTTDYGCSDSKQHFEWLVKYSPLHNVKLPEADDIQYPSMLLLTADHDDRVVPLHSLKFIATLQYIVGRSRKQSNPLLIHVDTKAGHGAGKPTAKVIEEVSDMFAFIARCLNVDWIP
Description: Recombinant human prolyl oligopeptidase was used for measurement. Recombinant expression was performed in E. coli under standard conditions as described elsewhere in the state of the art.
For activity measurements the chromogenic substrate Cbz-Gly-L-Pro-pNA was used in HEPES buffer pH 7.6 containing 50 mM HEPES, 200 mM NaCl, 1 mM EDTA, 1 mM DTT, 0.006% Brij35. Measurements were carried out at 30° C. Release of pNA were monitored continuously at 405 nm.
IC50 values were calculated using non-linear regression to a 4-parameter equation (Prism 4.0, GraphPad).
For Ki determination 4 substrate (0.15 mM, 0.08 mM 0.04 mM, 0.02 mM) and 7 inhibitor concentrations in an appropriate range were used. Calculations were performed by multiple non-linear regression analysis to the equation for competitive inhibition using GraFit 5.0 Software (Erithacus Software).

[2] = tested on: basal secretion of IL-6, human glial U-343 cells; experiment: IL-6 ELISA, basal secretion of IL-6 into conditioned medium; assay type: cell-based; details: inhibitor 20 μM, 24 hours, serum-free medium, untreated = 100%, read-out: Extracellular IL-6 concentration, % of untreated cells
Description: To analyze basal secretion of IL-6, human glial U-343 cells were cultured in 6 well plates (1.5×10^6 cells/well, Greiner) and treated with specific PEP inhibitors as indicated (20 μM each) for 24 hours in serum-free D-MEM medium (Invitrogen). Aliquots of 40 μl conditioned medium were used to quantify the amount of secreted IL-6 by an human-specific IL-6 ELISA (Biosource) following the manufacturer's instructions. All data were obtained in quadruplicate. For the calculation of the IL-6 concentration in the cell culture medium after PEP-inhibitor treatment, the basal IL-6 concentration of the cell culture medium of untreated cell samples was set to 100%. The results of the measurement of the IL-6 concentration with PEP-inhibitor treated cells are presented as % of the untreated cell samples.
(§1) The human glioma cell line, U-343 and the human neuroblastoma cell line, SH-SY5Y were maintained in Dulbecco's modified Eagle's medium (DMEM) containing 10% fetal bovine serum (Gibco BRL, Karlsruhe, Germany) and incubated at 37° C. in a 5% CO2 atmosphere. Culture media contained in general 60 μg/ml gentamycin (Gibco BRL, Karlsruhe, Germany).

[3] = tested on: beta-amyloid peptides 1-40 and 1-42, U-343 and SH-SY5Y cells; experiment: Beta-amyloid ELISA, secreted beta-amyloid peptides in conditioned medium; assay type: cell-based; details: Homo sapiens; inhibitor 20 μM, 24 hours; untreated = 100%; FIG. 2: Abeta 1-42, SH-SY5Y cells; read-out: Extracellular Abeta-concentration % of control
Description: as §1
To quantify intracellular and extracellular concentrations of beta-amyloid peptides, 1-40 and 1-42, U-343 and SH-SY5Y cells were cultured in 6 well plates (1.5×10^6 cells/well) and treated with specific PEP inhibitors (20 μM each) for 24 hours. For quantitation of secreted beta-amyloid peptides the conditioned medium was collected and concentrated by lyophylisation. Likewise, after determination of the cell numbers/well (casy cell counter I, Schärfe System, Reutlingen, Germany), cells were lyzed with cell extraction buffer (Biosource, Solingen, Germany) according to the manufacturer's protocol. The protein concentration was determined by the method of Bradford (1976). Aliquots of 100 μl were used to quantify beta-amyloid peptides 1-40 and 1-42 in quadruplicate by ELISA (IBL, Hamburg, Germany) following the manufacturer's instructions. All obtained intracellular and extracellular concentrations were normalized to cell numbers and protein concentration, respectively.
For the calculation of the concentration of beta-amyloid peptides 1-40 and 1-42 in the cell culture medium after PEP-inhibitor treatment, the basal concentration of beta-amyloid peptides 1-40 and 1-42 in the cell culture medium of untreated cell samples was set to 100%. The results of the measurement of the concentration of beta-amyloid peptides 1-40 and 1-42 with PEP-inhibitor treated cells are presented as % of the untreated cell samples.

| SMILES | Ki [1] [µM] | IC50 [1] [µM] | IC50 PEP (M) [1] | activity at 20 µM [2] [%] | activity at 20 µM [3] [%] |
| --- | --- | --- | --- | --- | --- |
| O=C(c1nc2ccccc2s1)[C@@H]1CCCN1C(=O)OCc1ccccc1 [Example 1, 2-[Cbz-L-Pro]Benzothiazole] | 0.98 | 7 | – | 40 | 155 |
| CC(C)(C)OC(=O)N[C@@H](Cc1ccc([N+](=O)[O-])cc1)C(=O)c1nccs1 [Example 11, 2-[Boc-L-(p-NO2)Phe]Thiazole] | – | 25 | – | 62 | 178 |
| CC(C)(C)OC(=O)N[C@@H](Cc1ccc([N+](=O)[O-])cc1)C(=O)c1ccco1 [Example 12, 2-[Boc-L-(p-NO2)Phe]Furan] | – | 14 | – | 37 | 166 |
| C=CCOC(=O)N[C@@H](Cc1ccccc1)C(=O)c1nccs1 [Example 14, 2-[Aloc-L-Phe]Thiazole] | – | – | – | 67 | 115 |
| CC(C)(C)OC(=O)N[C@@H](Cc1c[nH]c2ccccc12)C(=O)c1nc2ccccc2s1 [Example 16, 2-[Boc-L-Trp]Benzothiazole] | – | 40 | – | 23 | 177 |
| CC(C)(C)OC(=O)N[C@@H](Cc1c[nH]c2ccccc12)C(=O)c1nccs1 [Example 17, 2-[Boc-L-Trp]Thiazole] | – | 94 | – | 38 | 143 |
| CC(C)(C)OC(=O)N[C@@H](Cc1c[nH]c2ccccc12)C(=O)c1ccco1 [Example 18, 2-[Boc-L-Trp]Furan] | – | 14 | – | 24 | 163 |
| CC(C)C[C@H](NC(=O)OC(C)(C)C)C(=O)c1nc2ccccc2s1 [Example 20, 2-[Boc-L-Leu]Benzothiazole] | – | – | – | 63 | 375 |
| CC(C)(C)OC(=O)N[C@@H](Cc1ccc([N+](=O)[O-])cc1)C(=O)c1nc2ccccc2s1 [Example 21, 2-[Boc-L-(p-NO2)Phe]Benzothiazole] | – | – | n.i. | 96 | 311 |
| CC(C)(C)OC(=O)N[C@@H](Cc1ccc(I)cc1)C(=O)c1ccco1 [Example 22, 2-[Boc-L-(p-Iodo)Phe]Furan] | – | – | n.i. | 50 | 232 |
| CC(C)(C)OC(=O)N[C@@H](Cc1ccc(I)cc1)C(=O)c1nccs1 [Example 23, 2-[Boc-L-(p-Iodo)Phe]Thiazole] | – | – | n.i. | 41 | 210 |
| CC(C)(C)OC(=O)N1CCC[C@H]1C(=O)c1nc2ccccc2s1 [Example 24, 2-[Boc-L-Pro]Benzothiazole] | – | – | – | 26 | 136 |
| CC(C)(C)OC(=O)N1CCC[C@H]1C(=O)c1nccs1 [Example 25, 2-[Boc-L-Pro]Thiazole] | 2.3 | 7.3 | – | 59 | 111 |

More lines, main results first:

| Ki [1] [µM] | IC50 [1] [µM] | IC50 PEP (M) [1] | SMILES | activity at 20 µM [2] [%] | activity at 20 µM [3] [%] |
| --- | --- | --- | --- | --- | --- |
| – | > 100 | – | O=C(N[C@@H](Cc1ccccc1)C(=O)c1nc2ccccc2s1)OCc1ccccc1 [Example 2, 2-[Cbz-L-Phe]Benzothiazole] | 44 | 295 |
| – | 1 | – | O=C(N[C@@H](Cc1ccccc1)C(=O)c1cccs1)OCc1ccccc1 [Example 3, 2-[Cbz-L-Phe]Thiophene] | 23 | 339 |
| – | – | n.i. | O=C(N[C@H](Cc1ccccc1)C(=O)c1nccs1)OCc1ccccc1 [Example 4, 2-[Cbz-D-Phe]Thiazole] | 44 | 172 |
| 0.00115 | 0.0012 | – | O=C(N[C@@H](Cc1ccccc1)C(=O)c1nccs1)OCc1ccccc1 [Example 5, 2-[Cbz-L-Phe]Thiazole] | 29 | 193 |
| – | 4.5 | – | C[C@H](NC(=O)OCc1ccccc1)C(=O)c1nc2ccccc2s1 [Example 6, 2-[Cbz-L-Ala]Benzothiazole] | 36 | 114 |
| – | 39 | – | O=C(N[C@@H](Cc1ccccc1)C(=O)c1ccccn1)OCc1ccccc1 [Example 7, 2-[Cbz-L-Phe]Pyridine] | 31 | 236 |
| – | – | n.i. | O=C(N[C@@H](Cc1ccccc1)C(=O)c1cc2ccccc2s1)OCc1ccccc1 [Example 8, 2-[Cbz-L-Phe]Benzo[b]thiophene] | 27 | 310 |
| 1.6 | 5.2 | – | O=C(N[C@@H](Cc1ccccc1)C(=O)c1ccccc1)OCc1ccccc1 [Example 9, Cbz-L-Phe-Benzene] | 18 | 330 |
| 2.3 | 7.1 | – | C[C@H](NC(=O)OCc1ccccc1)C(=O)c1nccs1 [Example 10, 2-[Cbz-L-Ala]Thiazole] | 78 | 107 |
| – | – | n.i. | C=CCOC(=O)N[C@@H](Cc1ccccc1)C(=O)c1nc2ccccc2s1 [Example 13, 2-[Aloc-L-Phe]Benzothiazole] | 69 | 106 |
| – | 10 | – | C=CCOC(=O)N[C@@H](Cc1ccccc1)C(=O)c1ccco1 [Example 15, 2-[Aloc-L-Phe]Furan] | 78 | 116 |
| – | – | n.i. | O=C(/C=C/c1ccccc1)N[C@@H](Cc1ccccc1)C(=O)c1nccs1 [Example 19, 2-[Cinnamoyl-L-Phe]Thiazole] | 58 | 230 |
| 52 | 77 | – | CC(C)(C)OC(=O)N[C@@H](Cc1ccccc1)C(=O)c1nccs1 [Example 26, 2-[Boc-L-Phe]Thiazole] | 66 | 168 |

— patent US20100273835A1, “NOVEL COMPOUNDS” (PROBIODRUG AG, priority 2007, published 2010)
